Measurements reported in patent US5162336A, “Tetrahydro-pyrido-indoles as cholecystokinin and gastrin antagonists” (Rhone-Poulenc Rorer Pharmaceuticals Inc., priority 1990, dated 1992).

molecular target: T1, Gastrin receptor (Cavia porcellus, UniProt H0VZC5); assay: Gastrin receptor binding assay (displacement of 125I-(Leu-15)-Gastrin from guinea pig fundic glands); parameters: species or system guinea pig (Hartley Strain); conditions: guinea pig fundic mucosa glands, 25° C., 30 min, read-out: In vitro Binding Data IC50 Gastrin
T1 construct: The fundic mucosa is gently scraped off the submucosa; from tissue; host or cells: gastric glands from fundic mucosa of Hartley guinea pig
T1 sequence (H0VZC5 1-426): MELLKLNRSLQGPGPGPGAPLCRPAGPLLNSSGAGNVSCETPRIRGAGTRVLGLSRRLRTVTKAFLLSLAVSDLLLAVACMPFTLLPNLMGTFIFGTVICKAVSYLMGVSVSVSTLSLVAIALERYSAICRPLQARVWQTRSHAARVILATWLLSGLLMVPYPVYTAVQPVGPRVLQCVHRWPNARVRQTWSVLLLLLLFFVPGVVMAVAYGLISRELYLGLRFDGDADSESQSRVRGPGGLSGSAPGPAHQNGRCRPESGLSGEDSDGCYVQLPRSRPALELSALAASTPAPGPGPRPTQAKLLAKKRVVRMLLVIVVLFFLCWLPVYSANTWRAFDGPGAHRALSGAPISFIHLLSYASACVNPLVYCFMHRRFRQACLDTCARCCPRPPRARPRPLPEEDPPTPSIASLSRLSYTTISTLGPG
Protocol: (a) Phosphate Buffered Saline (PBS): 8.743 g NaCl, 523 mg K2 HPO4 and 76.8 mg NaH2 PO4 is dissolved in 1.0 liter of deionized water and the pH of the solution is adjusted to 7.3 with 5N NaOH.
(b) Buffer A: While adding Basal Medium Eagle (BME) containing Earle's Salts, L-glutamine and 25 mM HEPES, 3 liters of deionized water is stirred, followed by the addition and dissolution of […] of sodium bicarbonate. The solution is then equilibrated with 95% O2 /5% CO2 gas followed by titration to a pH of 7.4 with NaOH.
(c) Buffer B: 18.75 mg of collagenase and […] of BSA is dissolved in 25 ml of Buffer A.
(d) Buffer C: 0.3 g of BSA is dissolved in 300 ml of Buffer A.
(e) 6.25 mg Bacitracin is dissolved in 25 ml of Buffer A.
(f) ^125 I-(Leu-15)-Gastrin: 100 microcurie dissolved in 2.0 ml of Buffer A to make 50 microcurie/ml.
(g) ^125 I-(15-methionine)-Human Gastrin: 50 microcurie/ml.
(h) (Leu 15)-Gastrin: 5.2 mg of (Leu-15)- Gastrin is dissolved in 10 ml of Buffer A. At the time of assay 1:10 dilution is made and 10 μl assay tube is used.
A guinea pig (Hartley Strain) weighing 150-200 grams, is sacrificed by CO2 asphyxiation and the stomach immediately excised, cut along the greater curvature, cleaned out and immediately immersed in a beaker containing cold PBS, pH 7.3, to insure thorough cleaning. The fundic mucosa is gently scraped off the submucosa and added to a preweighed 50 ml plastic centrifuge tube containing 30 ml of cold Buffer A. The weight of the plastic centrifuge tube containing the buffer is then subtracted from the combined weight of the mucosa and the buffer-containing tube to give the weight of the mucosa. The weight of the mucosa thus determined is recorded for later calculations.
The mucosa is then washed twice in Buffer A. After the final wash, the tissue is minced and is placed in a 100-ml glass beaker containing about 1.0 ml of Buffer A, and washed twice again by repeated centrifugation at 50×g for 5 minutes each and aspiration of supernatant. The washed tissue fragments are then added to a glass Erlenmeyer flask containing 25 ml of Buffer B and incubated in a Dubnoff shaking water bath at 37° C. for 30 minutes in a 95% O2 - 5% CO2 atmosphere. After the incubation, the digested tissue fragments in the Collegenase-buffer solution are triturated, filtered through a 200-micron nylon mesh and centrifuged at 50×g for 5 minutes. The supernatant is aspirated and discarded, the tissue washed 2× in Buffer C, resuspended in same buffer, incubated in a 37° C. water bath in an atmosphere of 95% O2 - 5% CO2 for 5 minutes, and centrifuged. The pelleted glands are suspended in Buffer D at a desired concentration of 2x10^5 glands/ml to use in the receptor binding assay.
Six minisorp tubes (16×100 mm) are serially marked and divided into two groups thus: tubes #1, #2, and #3 are marked "T" for "Totals" and tubes #4, #5, and #6 are marked "NS" for "Non-Specifics." Into each of the six tubes are added 220 μl of prepared glands in Buffer D; 20 μl of Buffer A in tubes #1, #2, and #3; 10 μl, in tubes #4, #5 and #6; (10μ of (Leu-15)-Gastrin (25 μM) in tubes #4, #5, and #6. The six tubes are then transferred immediately to a 25° C. water bath and challenged each with 10 μl ^125 I-(Leu-15)-Gastrin diluted as per calculation. The tubes are then covered with a gas hood connected to a 95% O2 - 5% CO2 gas source and mechanically agitated in a shaker for 30 minutes.
At the end of the incubation period, the assay mixtures are each filtered through a Whatman glass fiber filter B on a Brandel tissue harvester and washed twice with Buffer A. The filters are pre-soaked in Buffer C before use. The filter strips are removed after the final wash and individual filters counted in a Gamma Counter. The counts from the "Non-Specific" tubes are then averaged and subtracted from the average "Totals" to give the Specific Counts. […]

| Compound | IC50 |
| --- | --- |
| NC(=O)[C@H](CC(=O)O)NC(=O)[C@@H]1Cc2c([nH]c3ccccc23)CN1 [Example 4, N-[(3S)-1,2,3,4-tetrahydro-9H-pyrido[3,4-b]indole-3-carboxyl]-L-aspartic amide] | > 300 µM |
| CCCCN(CCCC)C(=O)c1ccccc1NC(=O)[C@H]1Cc2c([nH]c3ccccc23)CN1C(=O)OCc1ccccc1 [Example 22] | > 300 µM |
| CCCCCN(CCCCC)C(=O)[C@H](CC(=O)O)NC(=O)[C@H]1Cc2c([nH]c3ccccc23)CN1C(=O)Nc1cccc(C)c1 [Example 46, N-[(3R)-2-(3-methylphenylcarbamoyl)-1,2,3,4-tetrahydro-9H-pyrido[3,4-b]indole-3-carboxyl]-L-aspartic acid dipentyl amide] | 2.6 µM |
| Cc1cccc(C(=O)N2Cc3[nH]c4ccccc4c3C[C@@H]2C(=O)N[C@@H](CC(C)C)C(=O)N[C@@H](CC(=O)O)C(N)=O)c1 [Example 54] | 6.8 µM |
| Cc1cccc(NC(=O)N2Cc3[nH]c4ccccc4c3C[C@@H]2C(=O)N[C@H](CC(C)C)C(=O)N[C@@H](CC(=O)O)C(N)=O)c1 [Example 57, N-[(3R)-2-(3-methylphenylcarbamoyl)-1,2,3,4-tetrahydro-9H-pyrido[3,4-b]indole-3-carboxyl]-D-leucyl-L-aspartic acid amide] | 22 µM |
| CC(C)C[C@H](NC(=O)[C@H]1Cc2c([nH]c3ccccc23)CN1C(=O)c1ccc2ccccc2c1)C(=O)N[C@@H](CC(=O)O)C(N)=O [Example 10, N-[(3R)-2-(2-naphthoyl)-1,2,3,4-tetrahydro-9H-pyrido[3,4-b]indole-3-carboxyl]-L-leucyl-L-aspartic acid amide] | 15 µM |
| Cc1cccc(NC(=O)N2Cc3[nH]c4ccccc4c3C[C@@H]2C(=O)N[C@H](CC(C)C)C(=O)N[C@H](CC(=O)O)C(N)=O)c1 [Example 45] | > 10 µM |
| CC(C)C[C@H](NC(=O)[C@H]1Cc2c([nH]c3ccccc23)CN1C(=O)Nc1ccc(Cl)cc1)C(=O)N[C@@H](CC(=O)O)C(N)=O [Example 55, N-[(3R)-2-(4-chlorophenylcarbamoyl)-1,2,3,4-tetrahydro-9H-pyrido[3,4-b]indole-3-carboxyl]-L-leucyl-L-asartic acid amide] | 3.3 µM |
| CCOC(=O)c1ccc(NC(=O)[C@H]2Cc3c([nH]c4ccccc34)CN2C(=O)Nc2cccc(C)c2)cc1 [Example 43] | 30 µM |
| CC(C)C[C@H](NC(=O)[C@H]1Cc2c([nH]c3ccccc23)CN1C(=O)Nc1ccccc1)C(=O)N[C@@H](CC(=O)O)C(N)=O [Example 14, N-[(3R)-2-phenylcarbamoyl-1,2,3,4-tetrahydro-9H-pyrido[3,4-b]indole-3-carboxyl]-L-leucyl-L-aspartic acid amide] | 5.5 µM |
| CC(C)C[C@H](NC(=O)[C@H]1Cc2c([nH]c3ccccc23)CN1)C(=O)N[C@@H](CC(=O)OCc1ccccc1)C(N)=O [Example 40] | 6 µM |
| O=C(Nc1ccccc1C(=O)N1CCCC1)[C@H]1Cc2c([nH]c3ccccc23)CN1C(=O)OCc1ccccc1 [Example 18, pyrrolidine-2-N-[(3R)-2-carbobenzoxy-1,2,3,4-tetrahydro-9H-pyrido-[3,4-b]indole-3-carboxyl]aminobenzamide] | 55 µM |
| CC(C)C[C@H](NC(=O)[C@H]1Cc2c([nH]c3ccccc23)CN1C(=O)Nc1cc(Cl)cc(Cl)c1)C(=O)N[C@@H](CC(=O)O)C(N)=O [Example 59, N-[(3R)-2-(3,5-dichlorophenylcarbamoyl)-1,2,3,4-tetrahydro-9H-pyrido[3,4-b]indole-3-carboxyl]-L-leucyl-L-aspartic acid amide] | 2 µM |
| CC(C)C[C@H](NC(=O)[C@H]1Cc2c([nH]c3ccccc23)CN1C(=O)Nc1cccc(C(F)(F)F)c1)C(=O)N[C@@H](CC(=O)O)C(N)=O [Example 63] | 4.1 µM |
| CCOC(=O)c1ccc(NC(=O)[C@H]2Cc3c([nH]c4ccccc34)CN2C(=O)OCc2ccccc2)cc1 [Example 15, ethyl 4-N-[(3R)-2-carbobenzoxy-1,2,3,4-tetrahydro-9H-pyrido[3,4-b]indole-3-carboxyl]aminobenzoate] | 10 µM |
| CC(C)C[C@H](NC(=O)[C@H]1Cc2c([nH]c3ccccc23)CN1C(=O)Nc1cccc(F)c1)C(=O)N[C@@H](CC(=O)O)C(N)=O [Example 65] | 7.3 µM |
| Cc1cccc(NC(=O)N2Cc3[nH]c4ccccc4c3C[C@H]2C(=O)N[C@H](CC(C)C)C(=O)N[C@H](CC(=O)O)C(N)=O)c1 [Example 49] | 0.9 µM |
| Cc1cccc(NC(=O)N2Cc3[nH]c4ccccc4c3C[C@@H]2C(=O)N2CCC[C@H]2C(=O)N[C@@H](CC(=O)O)C(N)=O)c1 [Example 44, N-[(3R)-2-(3-methylphenylcarbamoyl)-1,2,3,4-tetrahydro-9H-pyrido[3,4-b]indole-3-carboxyl]-L-prolyl-L-aspartic acid amide] | 2.2 µM |
| Cc1cccc(NC(=O)N2Cc3[nH]c4ccccc4c3C[C@@H]2C(=O)N[C@@H](CC(C)C)C(=O)N[C@@H](CC(=O)O)C(N)=O)c1 [Example 11, N-[(3R)-2-(3-methylphenylcarbamoyl)-1,2,3,4-tetrahydro-9H-pyrido[3,4-b]indole-3-carboxyl]-L-leucyl-L-aspartic acid amide] | 4 µM |
| CCOC(=O)c1ccccc1NC(=O)[C@@H]1Cc2c([nH]c3ccccc23)CN1C(=O)OCc1ccccc1 [Example 23, ethyl 2-N-[(3S)-2-carbobenzoxy-1,2,3,4-tetrahydro-9H-pyrido[3,4-b]indole-3-carboxyl]aminobenzoate] | > 300 µM |
| CC(C)C[C@H](NC(=O)[C@H]1Cc2c([nH]c3ccccc23)CN1C(=O)Nc1ccc(Cl)c(Cl)c1)C(=O)NCCC(=O)O [Example 27] | 0.41 µM |
| Cc1cccc(NC(=O)N2Cc3[nH]c4ccccc4c3C[C@@H]2C(=O)N(C)[C@@H](CC(C)C)C(=O)N[C@@H](CC(=O)O)C(N)=O)c1 [Example 53, N-[(3R)-2-(3-methylphenylcarbamoyl)-1,2,3,4-tetrahydro-9H-pyrido[3,4-b]indole-3-carboxyl]N'-methyl-L-leucine-L-aspartic acid amide] | 6 µM |
| COc1cccc(NC(=O)N2Cc3[nH]c4ccccc4c3C[C@@H]2C(=O)N[C@@H](CC(C)C)C(=O)N[C@@H](CC(=O)O)C(N)=O)c1 [Example 61] | 6.4 µM |
| CC(C)C[C@H](NC(=O)[C@H]1Cc2c([nH]c3ccccc23)CN1)C(=O)N[C@@H](CC(=O)O)C(N)=O [Example 1, N-[(3R)-1,2,3,4-tetrahydro-9H-pyrido[3,4-b]indole-3-carboxyl]-L-leucyl-L-aspartic acid amide] | 12 µM |
| CCCCCN(CCCCC)C(=O)[C@H]1Cc2c([nH]c3ccccc23)CN1C(=O)Nc1cccc(C)c1 [Example 13, (3R)-3-(N,N-dipentylcarbamoyl)-2-(3-methylphenylcarbamoyl)-1,2,3,4-tetrahydro-9H-pyrido[3,4-b]indole] | > 300 µM |
